The values that follow come from patent publication US6864246B2, “Anilide and cyclodextrin complexes, their preparation and their use as medicine in particular for treating dyslipidemiae” (Pierre Fabre Medicament, priority 2001, dated 2005).

The nature of data set [1]: Solubility at saturation of F12511 in solvents at 25° C. Format: physicochemical. Particulars: thermodynamic from solid. The protocol:
By way of example, the table below gives some characteristic solubilities at saturation, at 25° C.: […]

The nature of the next data set: physchem. Particulars: 25 °C, aqueous with cosolvent or surfactant or cyclodextrin, thermodynamic from solid.
The conditions of data set [2]: 1 h.
The conditions of data set [3]: 25° C.; cited from earlier work.
Setting [4] is: Amount of F12511 solubilized in a solution of sodium lauryl sulfate at 5%.

Values after ≈ are worked out from the molar mass of the structure shown. Read-outs that look alike come from different tables or passages of the source.

As to `CCCCCCCCCCCCS[C@H](C(=O)Nc1cc(C)c(O)c(C)c1C)c1ccccc1` [Example F12511, (S)-2′,3′,5′-trimethyl-4′-hydroxy-α-dodecylthiophenylacetanilide], the solubility in data set [1] (Macrogol 400, 25 °C, organic solvent or mixture, Macrogol 400, 25° C., read-out: Solubility at saturation) was 1000 µg/mL (≈ 2130 µM); in data set [1] (corn oil, 25 °C, oil or lipid, Corn oil, 25° C., read-out: Solubility at saturation), 300 µg/mL (≈ 639 µM); in data set [1] (ethanol, 25 °C, organic solvent or mixture, Ethanol, 25° C., read-out: Solubility at saturation), 7000 µg/mL (≈ 14900 µM); in data set [1] (ethyl alcohol at 95%, 25 °C, organic solvent or mixture, ethyl alcohol at 95%, read-out: Solubility at saturation) it was at most 2000 µg/mL; in data set [1] (water, 25 °C, water, Water, 25° C., limit of analytical detection, read-out: Solubility at saturation), under 0.05 µg/mL; in data set [1] (water, 25 °C, water, water, limit of analytical detection, read-out: Solubility at saturation in water), under 0.05 µg/mL. Besides, the solubility at 2 h in the data set “physchem” (Amount of F12511 solubilized) was about 10 µg/mL (≈ 21.3 µM); in “physchem” (setting [4]), 11 µg/mL (≈ 23.4 µM). In addition, in “physchem” (setting [4]), the solubility at 5 min worked out at 1 µg/mL (≈ 2.13 µM). Further, in the data set “physchem” (setting [4]), the solubility at 30 min is 3 µg/mL (≈ 6.39 µM). Moreover, the solubility at 1 h in the data set “physchem” (setting [4]) was 5 µg/mL (≈ 10.6 µM). Further, the “Amount of F12511 solubilized in a solution of sodium lauryl sulfate at 5%” value in data set [2] is 5 µg/mL.

Turning to `OC[C@H]1O[C@@H]2O[C@H]3[C@H](O)[C@@H](O)[C@@H](O[C@H]4[C@H](O)[C@@H](O)[C@@H](O[C@H]5[C@H](O)[C@@H](O)[C@@H](O[C@H]6[C@H](O)[C@@H](O)[C@@H](O[C@H]7[C@H](O)[C@@H](O)[C@@H](O[C@H]1[C@H](O)[C@H]2O)O[C@@H]7CO)O[C@@H]6CO)O[C@@H]5CO)O[C@@H]4CO)O[C@@H]3CO` [α-cyclodextrin], in data set [3], the Water-solubility is 14.2 g % ml,.
